Results reported in ChEMBL document CHEMBL4393734, “Structure-aided optimization of 3-O-β-chacotriosyl ursolic acid as novel H5N1 entry inhibitors with high selective index” (Bioorg Med Chem, 2019).
The source made the active and inactive calls. The rule behind the calls is not given here.

Experiments:
[1] = Selectivity index, ratio of CC50 for dog MDCK cells to IC50 for influenza A virus A/Duck/Guangdong/99(H5N1); assay type: toxicity; conditions: read-out: Ratio CC50/IC50
[2] = Cytotoxicity against dog MDCK cells measured after 48 hrs by MTT assay; assay type: cell-based, Canis lupus familiaris
[3] = test system: Influenza A virus; assay: Antiviral activity against influenza A virus A/Duck/Guangdong/99(H5N1) infected in MDCK cells assessed as reduction in virus induced cytopathic effect preincubated for 30 mins with virus followed by viral infection and measured after 48 hrs by microscopy analysis; assay type: functional, organism-based
[4] = test system: Influenza A virus; assay: Antiviral activity against influenza A virus H5N1 pseudovirus with HA (A/Thailand/Kan353/2004(H5N1) - HA/NA (A/Thailand/Kan353/2004(H5N1) -NA/HIV core plasmids infected in MDCK cells assessed as pseudovirus neutralization incubated for 30 mins with virus followed by viral infection and measured after 48 hrs by luciferase assay; assay type: functional, organism-based
[5] = target: Hemagglutinin (Influenza A virus) (UniProt B4URE7); assay: Inhibition of influenza A virus HA-mediated chicken erythrocytes hemagglutination measured after 1 hr
Sequence of Hemagglutinin (Influenza A virus) (B4URE7 as listed by the source): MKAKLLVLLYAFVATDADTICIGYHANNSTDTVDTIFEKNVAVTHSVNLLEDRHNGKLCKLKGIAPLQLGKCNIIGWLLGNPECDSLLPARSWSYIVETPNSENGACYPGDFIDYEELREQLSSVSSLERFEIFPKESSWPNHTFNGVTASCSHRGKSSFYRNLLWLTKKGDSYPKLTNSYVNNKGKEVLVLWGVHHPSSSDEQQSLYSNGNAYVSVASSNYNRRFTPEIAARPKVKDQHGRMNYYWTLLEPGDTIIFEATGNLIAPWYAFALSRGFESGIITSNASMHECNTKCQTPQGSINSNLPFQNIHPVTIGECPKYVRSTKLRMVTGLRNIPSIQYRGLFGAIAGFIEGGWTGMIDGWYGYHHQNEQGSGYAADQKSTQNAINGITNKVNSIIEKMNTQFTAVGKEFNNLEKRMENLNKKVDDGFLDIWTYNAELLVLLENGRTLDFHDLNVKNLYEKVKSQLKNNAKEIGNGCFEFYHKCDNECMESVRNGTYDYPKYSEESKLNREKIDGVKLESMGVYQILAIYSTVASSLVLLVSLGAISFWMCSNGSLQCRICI

[6] = target: Hemagglutinin (Influenza A virus, UniProt B4URE7); assay: Binding affinity to influenza A virus hemagglutin by surface plasmon resonance assay
Sequence of Hemagglutinin (B4URE7 whole entry): as the sequence (B4URE7 as listed by the source) above

[7] = target: Neuraminidase (Influenza A virus (A/Puerto Rico/8/1934(H1N1))) (UniProt P03468); assay: Inhibition of Influenza A virus (A/Puerto Rico/8/34(H1N1) neuraminidase N1 using MUNANA as substrate preincubated for 30 mins followed by substrate addition and further incubated for 1 hr in dark by microplate reader based fluorescence assay
Sequence of Neuraminidase (Influenza A virus (A/Puerto Rico/8/1934(H1N1))) (P03468 whole entry): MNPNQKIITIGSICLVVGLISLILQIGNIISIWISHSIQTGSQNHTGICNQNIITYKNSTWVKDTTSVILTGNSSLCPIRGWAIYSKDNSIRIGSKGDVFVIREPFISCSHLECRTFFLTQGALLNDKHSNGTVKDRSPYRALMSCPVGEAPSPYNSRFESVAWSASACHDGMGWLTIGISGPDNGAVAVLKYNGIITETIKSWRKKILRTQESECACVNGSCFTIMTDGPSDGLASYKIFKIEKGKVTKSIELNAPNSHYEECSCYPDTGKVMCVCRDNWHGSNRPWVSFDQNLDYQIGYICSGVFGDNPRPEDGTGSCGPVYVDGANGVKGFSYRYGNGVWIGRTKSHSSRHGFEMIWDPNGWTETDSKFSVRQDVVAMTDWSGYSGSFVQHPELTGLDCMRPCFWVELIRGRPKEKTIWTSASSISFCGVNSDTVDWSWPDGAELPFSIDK

[8] = Binding affinity to influenza A virus hemagglutinin 1 by surface plasmon resonance assay
[9] = test system: Vesicular stomatitis virus; assay: Antiviral activity against VSV-G pseudovirus infected in MDCK cells assessed as pseudovirus neutralization preincubated for 30 mins with virus and followed by viral infection and measured after 48 hrs by luciferase assay; assay type: functional, organism-based
[10] = test system: Influenza A virus; assay: Antiviral activity against influenza A virus A/Duck/Guangdong/99(H5N1) infected in MDCK cells assessed as inhibition of viral replication measured after 48 hr post infection by FITC/DAPI-staining based immunofluorescence microscopy assay; assay type: functional, organism-based

Compound	selectivity ratio [1]	CC50 at 48 h [2] [µM]	IC50 [3] [µM]	further results
C[C@H]1[C@H](C)CC[C@]2(C(=O)Nc3cccc(Cl)c3)CC[C@]3(C)C(=CC[C@@H]4[C@@]5(C)CC[C@H](O[C@@H]6O[C@H](CO)[C@@H](O[C@@H]7O[C@@H](C)[C@H](O)[C@@H](O)[C@H]7O)[C@H](O)[C@H]6O[C@@H]6O[C@@H](C)[C@H](O)[C@@H](O)[C@H]6O)C(C)(C)[C@@H]5CC[C@]43C)[C@H]12	> 136	> 1000	7.35	
C[C@H]1[C@H](C)CC[C@]2(C(=O)Nc3ccccc3Cl)CC[C@]3(C)C(=CC[C@@H]4[C@@]5(C)CC[C@H](O[C@@H]6O[C@H](CO)[C@@H](O[C@@H]7O[C@@H](C)[C@H](O)[C@@H](O)[C@H]7O)[C@H](O)[C@H]6O[C@@H]6O[C@@H](C)[C@H](O)[C@@H](O)[C@H]6O)C(C)(C)[C@@H]5CC[C@]43C)[C@H]12	103	306	2.98	
COc1ccccc1NC(=O)[C@]12CC[C@@H](C)[C@H](C)[C@H]1C1=CC[C@@H]3[C@@]4(C)CC[C@H](O[C@@H]5O[C@H](CO)[C@@H](O[C@@H]6O[C@@H](C)[C@H](O)[C@@H](O)[C@H]6O)[C@H](O)[C@H]5O[C@@H]5O[C@@H](C)[C@H](O)[C@@H](O)[C@H]5O)C(C)(C)[C@@H]4CC[C@@]3(C)[C@]1(C)CC2	> 952	> 1000	1.05	IC50 [4]: 1.28 µM; inhibition [5]: Dose-dependent effect; Kd [6]: 0.00122 µM; inhibition [7]: inactive; Kd [8]: 0.44 µM; inhibition [9]: inactive; Activity [10]: Dose-dependent effect
C[C@H]1[C@H](C)CC[C@]2(C(=O)Nc3ccc(OC(F)(F)F)cc3)CC[C@]3(C)C(=CC[C@@H]4[C@@]5(C)CC[C@H](O[C@@H]6O[C@H](CO)[C@@H](O[C@@H]7O[C@@H](C)[C@H](O)[C@@H](O)[C@H]7O)[C@H](O)[C@H]6O[C@@H]6O[C@@H](C)[C@H](O)[C@@H](O)[C@H]6O)C(C)(C)[C@@H]5CC[C@]43C)[C@H]12	52.6	451	8.56	
C[C@H]1[C@H](C)CC[C@]2(C(=O)O)CC[C@]3(C)C(=CC[C@@H]4[C@@]5(C)CC[C@H](O[C@@H]6O[C@H](CO)[C@@H](O[C@@H]7O[C@@H](C)[C@H](O)[C@@H](O)[C@H]7O)[C@H](O)[C@H]6O[C@@H]6O[C@@H](C)[C@H](O)[C@@H](O)[C@H]6O)C(C)(C)[C@@H]5CC[C@]43C)[C@H]12	1.5	25.3	16.4	
C[C@H]1[C@H](C)CC[C@]2(C(=O)Nc3ccc(Cl)cc3)CC[C@]3(C)C(=CC[C@@H]4[C@@]5(C)CC[C@H](O[C@@H]6O[C@H](CO)[C@@H](O[C@@H]7O[C@@H](C)[C@H](O)[C@@H](O)[C@H]7O)[C@H](O)[C@H]6O[C@@H]6O[C@@H](C)[C@H](O)[C@@H](O)[C@H]6O)C(C)(C)[C@@H]5CC[C@]43C)[C@H]12	> 287	> 1000	3.48	inhibition [7]: inactive
COc1ccc(CNC(=O)[C@]23CC[C@@H](C)[C@H](C)[C@H]2C2=CC[C@@H]4[C@@]5(C)CC[C@H](O[C@@H]6O[C@H](CO)[C@@H](O[C@@H]7O[C@@H](C)[C@H](O)[C@@H](O)[C@H]7O)[C@H](O)[C@H]6O[C@@H]6O[C@@H](C)[C@H](O)[C@@H](O)[C@H]6O)C(C)(C)[C@@H]5CC[C@@]4(C)[C@]2(C)CC3)cc1	11.5	100	8.72	
COc1ccc(NC(=O)[C@]23CC[C@@H](C)[C@H](C)[C@H]2C2=CC[C@@H]4[C@@]5(C)CC[C@H](O[C@@H]6O[C@H](CO)[C@@H](O[C@@H]7O[C@@H](C)[C@H](O)[C@@H](O)[C@H]7O)[C@H](O)[C@H]6O[C@@H]6O[C@@H](C)[C@H](O)[C@@H](O)[C@H]6O)C(C)(C)[C@@H]5CC[C@@]4(C)[C@]2(C)CC3)cc1	> 472	> 1000	2.12	inhibition [7]: inactive
C[C@H]1[C@H](C)CC[C@]2(C(=O)NCc3ccccc3)CC[C@]3(C)C(=CC[C@@H]4[C@@]5(C)CC[C@H](O[C@@H]6O[C@H](CO)[C@@H](O[C@@H]7O[C@@H](C)[C@H](O)[C@@H](O)[C@H]7O)[C@H](O)[C@H]6O[C@@H]6O[C@@H](C)[C@H](O)[C@@H](O)[C@H]6O)C(C)(C)[C@@H]5CC[C@]43C)[C@H]12	13.2	123	9.35	
CNC(=O)[C@]12CC[C@@H](C)[C@H](C)[C@H]1C1=CC[C@@H]3[C@@]4(C)CC[C@H](O[C@@H]5O[C@H](CO)[C@@H](O[C@@H]6O[C@@H](C)[C@H](O)[C@@H](O)[C@H]6O)[C@H](O)[C@H]5O[C@@H]5O[C@@H](C)[C@H](O)[C@@H](O)[C@H]5O)C(C)(C)[C@@H]4CC[C@@]3(C)[C@]1(C)CC2	60.7	683	11.2	
COc1cccc(NC(=O)[C@]23CC[C@@H](C)[C@H](C)[C@H]2C2=CC[C@@H]4[C@@]5(C)CC[C@H](O[C@@H]6O[C@H](CO)[C@@H](O[C@@H]7O[C@@H](C)[C@H](O)[C@@H](O)[C@H]7O)[C@H](O)[C@H]6O[C@@H]6O[C@@H](C)[C@H](O)[C@@H](O)[C@H]6O)C(C)(C)[C@@H]5CC[C@@]4(C)[C@]2(C)CC3)c1	> 113	> 1000	5.92	
C[C@H]1[C@H](C)CC[C@]2(C(=O)N3CCCC3)CC[C@]3(C)C(=CC[C@@H]4[C@@]5(C)CC[C@H](O[C@@H]6O[C@H](CO)[C@@H](O[C@@H]7O[C@@H](C)[C@H](O)[C@@H](O)[C@H]7O)[C@H](O)[C@H]6O[C@@H]6O[C@@H](C)[C@H](O)[C@@H](O)[C@H]6O)C(C)(C)[C@@H]5CC[C@]43C)[C@H]12	13	42.4	3.25	
C[C@H]1[C@H](C)CC[C@]2(C(=O)Nc3ccc(F)cc3)CC[C@]3(C)C(=CC[C@@H]4[C@@]5(C)CC[C@H](O[C@@H]6O[C@H](CO)[C@@H](O[C@@H]7O[C@@H](C)[C@H](O)[C@@H](O)[C@H]7O)[C@H](O)[C@H]6O[C@@H]6O[C@@H](C)[C@H](O)[C@@H](O)[C@H]6O)C(C)(C)[C@@H]5CC[C@]43C)[C@H]12	> 189	> 1000	5.28	
C[C@H]1[C@H](C)CC[C@]2(C(=O)Nc3ccc(Br)cc3)CC[C@]3(C)C(=CC[C@@H]4[C@@]5(C)CC[C@H](O[C@@H]6O[C@H](CO)[C@@H](O[C@@H]7O[C@@H](C)[C@H](O)[C@@H](O)[C@H]7O)[C@H](O)[C@H]6O[C@@H]6O[C@@H](C)[C@H](O)[C@@H](O)[C@H]6O)C(C)(C)[C@@H]5CC[C@]43C)[C@H]12			> 50	
C[C@H]1[C@H](C)CC[C@]2(C(=O)Nc3ccccc3)CC[C@]3(C)C(=CC[C@@H]4[C@@]5(C)CC[C@H](O[C@@H]6O[C@H](CO)[C@@H](O[C@@H]7O[C@@H](C)[C@H](O)[C@@H](O)[C@H]7O)[C@H](O)[C@H]6O[C@@H]6O[C@@H](C)[C@H](O)[C@@H](O)[C@H]6O)C(C)(C)[C@@H]5CC[C@]43C)[C@H]12	> 171	> 1000	5.85	
C[C@H]1[C@H](C)CC[C@]2(C(=O)NCCN(C)C)CC[C@]3(C)C(=CC[C@@H]4[C@@]5(C)CC[C@H](O[C@@H]6O[C@H](CO)[C@@H](O[C@@H]7O[C@@H](C)[C@H](O)[C@@H](O)[C@H]7O)[C@H](O)[C@H]6O[C@@H]6O[C@@H](C)[C@H](O)[C@@H](O)[C@H]6O)C(C)(C)[C@@H]5CC[C@]43C)[C@H]12			> 50	
